# Biological target: DGKα (Homo sapiens (Human), UniProt P23743)
# Test: Measurement of inhibitory effect against DGKα enzyme (ADP-Glo)
# Type: biochemical
# Details: DGKα enzyme, ADP-Glo luminescence, OAG/ATP substrate, 20 min room temperature; read-out: IC50
# Experimental: Experimental Example: Measurement of Inhibitory Effect Against DGKα Enzyme
# First, 3×OAG (3 mM)/ATP (0.45 mM) substrate solution was prepared from 1× substrate assay buffer (40 mM MOPS (pH 7.2), 20 mM MgCl2, 1 mM DTT, 0.4 mM CaCl2), 3 mM sodium deoxycholate, 100 mM NaCl, 0.1 mg/mL BSA, 0.12% NP-40), and vortexed thoroughly for 3 minutes to induce detergent-lipid micelle formation. Then, 3×DGKα (7.5 nM) enzyme solution was prepared from 2× enzyme assay buffer (80 mM MOPS (pH 7.2), 2 mM DTT, 200 mM NaCl, 0.2 mg/mL BSA) and vortexed for a short time.
# After preparing the above two solutions, a half-area opaque 96-well assay plate was prepared, and 10 μL of 3× diluted compound solution (30 μM to 0 μM) was transferred to each well. Next, 10 μL of 3×DGK enzyme solution was transferred to the same plate, mixed by pipetting, and then 10 μL of 3×OAG/ATP substrate solution was added to the assay plate and mixed well. The plate was incubated at room temperature for 20 minutes for the enzyme reaction. Next, 15 μL of ADP-Glo reagent was added to each well and mixed by pipetting, followed by incubating the plate at room temperature for 40 minutes to deplete the remaining ATPs. After this step, 30 μL of kinase detection reagent was added and mixed, and the plate was incubated at room temperature for an additional 20 minutes and luminescence was measured by Envision to calculate the IC50 value of each compound.
# The measurement results are represented in Table 1 (+: IC50>5 μM, ++: 5 μM>IC50>300 nM, +++: IC50<300 nM).
# DGKα, sequence (P23743 whole entry, species assumed): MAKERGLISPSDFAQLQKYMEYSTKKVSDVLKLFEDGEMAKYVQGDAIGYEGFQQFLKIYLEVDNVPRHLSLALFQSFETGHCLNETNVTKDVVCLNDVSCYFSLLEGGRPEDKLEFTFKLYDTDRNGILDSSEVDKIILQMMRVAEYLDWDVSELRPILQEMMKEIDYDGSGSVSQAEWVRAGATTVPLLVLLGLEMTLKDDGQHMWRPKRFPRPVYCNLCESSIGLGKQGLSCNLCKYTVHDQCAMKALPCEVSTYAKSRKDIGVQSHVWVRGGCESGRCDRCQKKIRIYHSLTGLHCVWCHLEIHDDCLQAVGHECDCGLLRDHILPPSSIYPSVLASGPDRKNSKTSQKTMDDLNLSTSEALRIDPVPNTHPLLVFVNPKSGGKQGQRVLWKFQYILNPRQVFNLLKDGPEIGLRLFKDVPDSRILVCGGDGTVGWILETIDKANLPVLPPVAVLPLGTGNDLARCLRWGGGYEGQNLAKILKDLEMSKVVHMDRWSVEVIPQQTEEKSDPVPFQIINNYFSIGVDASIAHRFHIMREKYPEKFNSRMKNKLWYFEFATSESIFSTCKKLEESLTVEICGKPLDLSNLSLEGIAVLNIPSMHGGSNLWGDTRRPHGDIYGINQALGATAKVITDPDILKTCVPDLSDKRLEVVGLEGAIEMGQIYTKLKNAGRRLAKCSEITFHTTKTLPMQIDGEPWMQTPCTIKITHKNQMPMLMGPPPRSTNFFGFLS
row,Structure (SMILES),IC50 [nM]
1,"Cn1c(=O)c(=O)n(C2CCN(Cc3ccc(OC(F)(F)F)cc3)CC2)c2ncccc21 [Example 1, methyl-4-(1-(4-(trifluoromethoxy)benzyl)piperidin-4-yl)-1,4-dihydropyrido[2,3-b]pyrazine-2,3-dione]",< 300
2,"Cc1ccc2c(n1)n(C1CCN(Cc3ccc(OC(F)(F)F)cc3)CC1)c(=O)c(=O)n2C [Example 2, 1,6-dimethyl-4-(1-(4-(trifluoromethoxy)benzyl)piperidin-4-yl)-1,4-dihydropyrido[2,3-b]pyrazine-2,3-dione]",< 300
3,"CCn1c(=O)c(=O)n(C2CCN(Cc3ccc(OC(F)(F)F)cc3)CC2)c2ncccc21 [Example 3, ethyl-4-(1-(4-(trifluoromethoxy)benzyl)piperidin-4-yl)-1,4-dihydropyrido[2,3-b]pyrazine-2,3-dione]",300 to 5000
4,"CC(C)Cn1c(=O)c(=O)n(C2CCN(Cc3ccc(OC(F)(F)F)cc3)CC2)c2ncccc21 [Example 4, isobutyl-4-(1-(4-(trifluoromethoxy)benzyl)piperidin-4-yl)-1,4-dihydropyrido[2,3-b]pyrazine-2,3-dione]",> 5000
5,"Cc1ccc2c(n1)n(C1CCN(Cc3cccc4ccccc34)CC1)c(=O)c(=O)n2C [Example 5, 1,6-dimethyl-4-(1-(naphthalen-1-ylmethyl)piperidin-4-yl)-1,4-dihydropyrido[2,3-b]pyrazine-2,3-dione]",< 300
6,"Cc1ccc2c(n1)n(C1CCN(Cc3cc4ccccc4nc3Cl)CC1)c(=O)c(=O)n2C [Example 6, 4-(1-((2-chloroquinolin-3-yl)methyl)piperidin-4-yl)-1,6-dimethyl-1,4-dihydropyrido[2,3-b]pyrazine-2,3-dione]",300 to 5000
7,"Cc1ccc2c(n1)n(C1CCN(Cc3c(C)n(C)c4ccccc34)CC1)c(=O)c(=O)n2C [Example 7, 4-(1-((1,2-dimethyl-1H-indol-3-yl)methyl)piperidin-4-yl)-1,6-dimethyl-1,4-dihydropyrido[2,3-b]pyrazine-2,3-dione]",> 5000
8,"Cc1ccc2c(n1)n(C1CCN(Cc3ccc4c(ccn4C)c3)CC1)c(=O)c(=O)n2C [Example 8, 1,6-dimethyl-4-(1-((1-methyl-1H-indol-5-yl)methyl)piperidin-4-yl)-1,4-dihydropyrido[2,3-b]pyrazine-2,3-dione]",300 to 5000
9,"Cc1ccc2c(n1)n(C1CCN(Cc3ccnc4ccccc34)CC1)c(=O)c(=O)n2C [Example 9, 1,6-dimethyl-4-(1-(quinolin-4-ylmethyl)piperidin-4-yl)-1,4-dihydropyrido[2,3-b]pyrazine-2,3-dione]",300 to 5000
10,"Cc1ccc2c(n1)n(C1CCN(Cc3ccccc3-c3ccccc3)CC1)c(=O)c(=O)n2C [Example 10, 4-(1-([1,1′-biphenyl]-2-ylmethyl)piperidin-4-yl)-1,6-dimethyl-1,4-dihydropyrido[2,3-b]pyrazine-2,3-dione]",300 to 5000
11,"Cn1c(=O)c(=O)n(C2CCN(Cc3ccc(OC(F)(F)F)cc3)CC2)c2nc(C#N)ccc21 [Example 11, 1-methyl-2,3-dioxo-4-(1-(4-(trifluoromethoxy)benzyl)piperidin-4-yl)-1,2,3,4-tetrahydropyrido[2,3-b]pyrazine-6-carbonitrile]",300 to 5000
12,"Cc1ccc2c(n1)n(C1CCN(Cc3ccccc3Cl)CC1)c(=O)c(=O)n2C [Example 12, 4-(1-(2-chlorobenzyl)piperidin-4-yl)-1,6-dimethyl-1,4-dihydropyrido[2,3-b]pyrazine-2,3-dione]",300 to 5000
13,"Cc1ccc2c(n1)n(C1CCN(Cc3cccc(Cl)c3)CC1)c(=O)c(=O)n2C [Example 13, 4-(1-(3-chlorobenzyl)piperidin-4-yl)-1,6-dimethyl-1,4-dihydropyrido[2,3-b]pyrazine-2,3-dione]",< 300
14,"Cc1ccc2c(n1)n(C1CCN(Cc3ccc(Cl)cc3)CC1)c(=O)c(=O)n2C [Example 14, 4-(1-(4-chlorobenzyl)piperidin-4-yl)-1,6-dimethyl-1,4-dihydropyrido[2,3-b]pyrazine-2,3-dione]",300 to 5000
15,"COc1ncccc1CN1CCC(n2c(=O)c(=O)n(C)c3ccc(C)nc32)CC1 [Example 15, 4-(1-((2-methoxypyridin-3-yl)methyl)piperidin-4-yl)-1,6-dimethyl-1,4-dihydropyrido[2,3-b]pyrazine-2,3-dione]",> 5000
16,"Cc1ccc2c(n1)n(C1CCN(Cc3cccc(F)n3)CC1)c(=O)c(=O)n2C [Example 16, 4-(1-((6-fluoropyridin-2-yl)methyl)piperidin-4-yl)-1,6-dimethyl-1,4-dihydropyrido[2,3-b]pyrazine-2,3-dione]",> 5000

row,Structure (SMILES),IC50 [nM]
1,"Cc1ccc2c(n1)n(C1CCN(Cc3ccc(F)nc3)CC1)c(=O)c(=O)n2C [Example 17, 4-(1-((6-fluoropyridin-3-yl)methyl)piperidin-4-yl)-1,6-dimethyl-1,4-dihydropyrido[2,3-b]pyrazine-2,3-dione]",300 to 5000
2,"Cc1ccc2c(n1)n(C1CCN(Cc3ccc(Oc4ccccc4)cc3)CC1)c(=O)c(=O)n2C [Example 18, 1,6-dimethyl-4-(1-(4-phenoxybenzyl)piperidin-4-yl)-1,4-dihydropyrido[2,3-b]pyrazine-2,3-dione]",< 300
3,"Cc1ccc2c(n1)n(C1CCN(Cc3ccc4ccccc4c3)CC1)c(=O)c(=O)n2C [Example 19, 1,6-dimethyl-4-(1-(naphthalen-2-ylmethyl)piperidin-4-yl)-1,4-dihydropyrido[2,3-b]pyrazine-2,3-dione]",300 to 5000
4,"Cc1ccc2c(n1)n(C1CCN(Cc3cccc4cnccc34)CC1)c(=O)c(=O)n2C [Example 20, 4-(1-(isoquinolin-5-ylmethyl)piperidin-4-yl)-1,6-dimethyl-1,4-dihydropyrido[2,3-b]pyrazine-2,3-dione]",300 to 5000
5,"Cc1ccc2c(n1)n(C1CCN(Cc3cccc(Oc4ccccc4)c3)CC1)c(=O)c(=O)n2C [Example 21, 1,6-dimethyl-4-(1-(3-phenoxybenzyl)piperidin-4-yl)-1,4-dihydropyrido[2,3-b]pyrazine-2,3-dione]",300 to 5000
6,"Cn1c(=O)c(=O)n(C2CCN(Cc3cccc(Cl)c3)CC2)c2ncccc21 [Example 22, 4-(1-(3-chlorobenzyl)piperidin-4-yl)-1-methyl-1,4-dihydropyrido[2,3-b]pyrazine-2,3-dione]",< 300
7,"Cc1ccc2c(n1)n(C1CCN(Cc3ccccc3)CC1)c(=O)c(=O)n2C [Example 23, 4-(1-benzylpiperidin-4-yl)-1,6-dimethyl-1,4-dihydropyrido[2,3-b]pyrazine-2,3-dione]",300 to 5000
8,"Cc1ccc2c(n1)n(C1CCN(C(C)c3ccc4nccnc4c3)CC1)c(=O)c(=O)n2C (stereo not shown) [Example 24, 1,6-dimethyl-4-(1-(1-(quinoxalin-6-yl)ethyl)piperidin-4-yl)-1,4-dihydropyrido[2,3-b]pyrazine-2,3-dione]",> 5000
9,"Cn1c(=O)c(=O)n(C2CCN(Cc3cccc(Cl)c3)CC2)c2nc(C#N)ccc21 [Example 25, 4-(1-(3-chlorobenzyl)piperidin-4-yl)-1-methyl-2,3-dioxo-1,2,3,4-tetrahydropyrido[2,3-b]pyrazine-6-carbonitrile]",300 to 5000
10,"Cn1c(=O)c(=O)n(C2CCN(Cc3cccc4ccccc34)CC2)c2nc(C#N)ccc21 [Example 26, 1-methyl-4-(1-(naphthalen-1-ylmethyl)piperidin-4-yl)-2,3-dioxo-1,2,3,4-tetrahydropyrido[2,3-b]pyrazine-6-carbonitrile]",300 to 5000
11,"Cn1c(=O)c(=O)n(C2CCN(Cc3ccc(OC(F)(F)F)cc3)CC2)c2ncc(Cl)cc21 [Example 28, 7-chloro-1-methyl-4-(1-(4-(trifluoromethoxy)benzyl)piperidin-4-yl)-1,4-dihydropyrido[2,3-b]pyrazine-2,3-dione]",< 300
12,"Cn1c(=O)c(=O)n(C2CCN(Cc3cccc4ccccc34)CC2)c2ncc(Cl)cc21 [Example 29, 7-chloro-1-methyl-4-(1-(naphthalen-1-ylmethyl)piperidin-4-yl)-1,4-dihydropyrido[2,3-b]pyrazine-2,3-dione]",< 300
13,"Cn1c(=O)c(=O)n(C2CCN(Cc3cccc(C(F)(F)F)c3)CC2)c2ncc(Cl)cc21 [Example 30, 7-chloro-1-methyl-4-(1-(3-(trifluoromethyl)benzyl)piperidin-4-yl)-1,4-dihydropyrido[2,3-b]pyrazine-2,3-dione]",< 300
14,"Cn1c(=O)c(=O)n(C2CCN(Cc3ccc(OC(F)(F)F)cc3)CC2(C)C)c2ncc(Cl)cc21 (stereo not shown) [Example 31, 7-chloro-4-(3,3-dimethyl-1-(4-(trifluoromethoxy)benzyl)piperidin-4-yl)-1-methyl-1,4-dihydropyrido[2,3-b]pyrazine-2,3-dione]",300 to 5000
15,"Cn1c(=O)c(=O)n([C@H]2C[C@H]3CC[C@@H](C2)N3Cc2ccc(OC(F)(F)F)cc2)c2ncc(Cl)cc21 [Example 32, 7-chloro-1-methyl-4-((1R,3s,5S)-8-(4-(trifluoromethoxy)benzyl)-8-azabicyclo[3.2.1]octan-3-yl)-1,4-dihydropyrido[2,3-b]pyrazine-2,3-dione]",< 300

# — patent US20240067645A1, “HETEROCYCLIC COMPOUND AS DIACYLGLYCEROL KINASE INHIBITOR AND USE THEREOF” (LG CHEM, LTD., priority 2020, published 2024)
